Laboratory results: PubChem BioAssay AID1259407 (Chemical Carcinogenesis Research Information System (CCRIS), 2018)
The source made the active and inactive calls. The rule behind the calls is not given here.

System: CCRIS mutagenicity, Ames/micronucleus/aberration tests
Assay: CCRIS mutagenicity studies
[1] = Test System: AMES SALMONELLA TYPHIMURIUM, Strain/Indicator: TA98, Metabolic Activation: NONE, Method: PREINCUBATION
[2] = Test System: AMES SALMONELLA TYPHIMURIUM, Strain/Indicator: TA100, Metabolic Activation: NONE, Method: PREINCUBATION
[3] = Test System: AMES SALMONELLA TYPHIMURIUM, Strain/Indicator: TA98, Metabolic Activation: RAT, LIVER, S-9, AROCLOR 1254, Method: STANDARD PLATE
[4] = Test System: AMES SALMONELLA TYPHIMURIUM, Strain/Indicator: TA100, Metabolic Activation: RAT, LIVER, S-9, AROCLOR 1254, Method: STANDARD PLATE
[5] = Test System: AMES SALMONELLA TYPHIMURIUM, Strain/Indicator: TA1537, Metabolic Activation: NONE, Method: STANDARD PLATE
[6] = Test System: AMES SALMONELLA TYPHIMURIUM, Strain/Indicator: TA1537, Metabolic Activation: RAT, LIVER, S-9, AROCLOR 1254, Method: STANDARD PLATE

CCNCC
mutagenic call (Test System: AMES SALMONELLA TYPHIMURIUM, Strain/Indicator: TA98, Metabolic Activation: HAMSTER, LIVER, S-9, AROCLOR 1254 (10%), Method: PREINCUBATION): inactive; negative
mutagenic call [1]: inactive; negative
mutagenic call (Test System: AMES SALMONELLA TYPHIMURIUM, Strain/Indicator: TA98, Metabolic Activation: RAT, LIVER, S-9, AROCLOR 1254 (10%), Method: PREINCUBATION): inactive; negative
mutagenic call (Test System: AMES SALMONELLA TYPHIMURIUM, Strain/Indicator: TA100, Metabolic Activation: HAMSTER, LIVER, S-9, AROCLOR 1254 (10%), Method: PREINCUBATION): inactive; negative
mutagenic call [2]: inactive; negative
mutagenic call (Test System: AMES SALMONELLA TYPHIMURIUM, Strain/Indicator: TA100, Metabolic Activation: RAT, LIVER, S-9, AROCLOR 1254 (10%), Method: PREINCUBATION): inactive; negative
mutagenic call (Test System: AMES SALMONELLA TYPHIMURIUM, Strain/Indicator: TA1535, Metabolic Activation: HAMSTER, LIVER, S-9, AROCLOR 1254 (10%), Method: PREINCUBATION): inactive; negative
mutagenic call (Test System: AMES SALMONELLA TYPHIMURIUM, Strain/Indicator: TA1535, Metabolic Activation: NONE, Method: PREINCUBATION): inactive; negative
mutagenic call (Test System: AMES SALMONELLA TYPHIMURIUM, Strain/Indicator: TA1535, Metabolic Activation: RAT, LIVER, S-9, AROCLOR 1254 (10%), Method: PREINCUBATION): inactive; negative
mutagenic call (Test System: AMES SALMONELLA TYPHIMURIUM, Strain/Indicator: TA1537, Metabolic Activation: HAMSTER, LIVER, S-9, AROCLOR 1254 (10%), Method: PREINCUBATION): inactive; negative
mutagenic call (Test System: AMES SALMONELLA TYPHIMURIUM, Strain/Indicator: TA1537, Metabolic Activation: NONE, Method: PREINCUBATION): inactive; negative
mutagenic call (Test System: AMES SALMONELLA TYPHIMURIUM, Strain/Indicator: TA1537, Metabolic Activation: RAT, LIVER, S-9, AROCLOR 1254 (10%), Method: PREINCUBATION): inactive; negative

O=C(N=c1sn(C(=O)c2cccc(Cl)c2)c2ccc([N+](=O)[O-])cc12)c1cccc(Cl)c1
mutagenic call (Test System: AMES SALMONELLA TYPHIMURIUM, Strain/Indicator: TA100, Metabolic Activation: S-9, Method: STANDARD PLATE): active; positive

Cc1cc(O)c2c(c1)C(=O)C13C(=C2O)C(=O)C2C(O)C1C1C(O)C3C(=O)C3=C(O)c4c(O)cc(C)cc4C(=O)C321 (stereo not drawn)
mutagenic call [3]: inactive; negative
mutagenic call [4]: inactive; negative
mutagenic call [5]: inactive; negative
mutagenic call [6]: inactive; negative

c1ccc2cnncc2c1
mutagenic call (Test System: AMES SALMONELLA TYPHIMURIUM, Strain/Indicator: TA98, Metabolic Activation: HAMSTER, LIVER, S-9, AROCLOR 1254, Method: STANDARD PLATE): inactive; negative
mutagenic call [1]: inactive; negative
mutagenic call (Test System: AMES SALMONELLA TYPHIMURIUM, Strain/Indicator: TA98, Metabolic Activation: NONE, Method: STANDARD PLATE): inactive; negative
mutagenic call [3]: inactive; negative
mutagenic call (Test System: AMES SALMONELLA TYPHIMURIUM, Strain/Indicator: TA98, Metabolic Activation: RAT, LIVER, S-9, PCB, Method: PREINCUBATION): inactive; negative
mutagenic call (Test System: AMES SALMONELLA TYPHIMURIUM, Strain/Indicator: TA100, Metabolic Activation: HAMSTER, LIVER, S-9, AROCLOR 1254, Method: STANDARD PLATE): inactive; negative
mutagenic call [2]: inactive; negative
mutagenic call (Test System: AMES SALMONELLA TYPHIMURIUM, Strain/Indicator: TA100, Metabolic Activation: NONE, Method: STANDARD PLATE): inactive; negative
mutagenic call [4]: inactive; negative
mutagenic call (Test System: AMES SALMONELLA TYPHIMURIUM, Strain/Indicator: TA100, Metabolic Activation: RAT, LIVER, S-9, PCB, Method: PREINCUBATION): inactive; negative
mutagenic call (Test System: AMES SALMONELLA TYPHIMURIUM, Strain/Indicator: TA1535, Metabolic Activation: HAMSTER, LIVER, S-9, AROCLOR 1254, Method: STANDARD PLATE): inactive; negative
mutagenic call (Test System: AMES SALMONELLA TYPHIMURIUM, Strain/Indicator: TA1535, Metabolic Activation: NONE, Method: STANDARD PLATE): inactive; negative
mutagenic call (Test System: AMES SALMONELLA TYPHIMURIUM, Strain/Indicator: TA1535, Metabolic Activation: RAT, LIVER, S-9, AROCLOR 1254, Method: STANDARD PLATE): inactive; negative
mutagenic call (Test System: AMES SALMONELLA TYPHIMURIUM, Strain/Indicator: TA1537, Metabolic Activation: HAMSTER, LIVER, S-9, AROCLOR 1254, Method: STANDARD PLATE): inactive; negative
mutagenic call [5]: inactive; negative
mutagenic call [6]: inactive; negative
mutagenic call (Test System: AMES SALMONELLA TYPHIMURIUM, Strain/Indicator: TA1538, Metabolic Activation: HAMSTER, LIVER, S-9, AROCLOR 1254, Method: STANDARD PLATE): inactive; negative
mutagenic call (Test System: AMES SALMONELLA TYPHIMURIUM, Strain/Indicator: TA1538, Metabolic Activation: NONE, Method: STANDARD PLATE): inactive; negative
mutagenic call (Test System: AMES SALMONELLA TYPHIMURIUM, Strain/Indicator: TA1538, Metabolic Activation: RAT, LIVER, S-9, AROCLOR 1254, Method: STANDARD PLATE): inactive; negative
mutagenic call (Test System: MOUSE LYMPHOMA, Strain/Indicator: L5178Y (TK+/TK-), Metabolic Activation: NONE, Method: SUSPENSION/PLATE): active; positive. reevaluation of results: equivocal
mutagenic call (Test System: MOUSE LYMPHOMA, Strain/Indicator: L5178Y (TK+/TK-), Metabolic Activation: RAT, LIVER, S-9, AROCLOR 1254, Method: SUSPENSION/PLATE): active; positive. reevaluation of results: positive
